Literature values as cited in patent US10543256B2, “Stable pharmaceutical formulation comprising a reconstituted pulmonary surfactant composition” (CHIESI FARMACEUTICI S.P.A., priority 2016, dated 2020).

Conditions: at 25° C.

Cl.NC(CO)(CO)CO [TRIS, Tris(hydroxymethyl)aminomethane hydrochloride]
pKa: 8.06
